Measured values: ChEMBL document CHEMBL4368888, “Design, synthesis and biological evaluation of tryptamine salicylic acid derivatives as potential antitumor agents” (Medchemcomm, 2019)
Active and inactive are the calls of the source. The calls are words filed in the database; no cut-off is given here.

How the values were obtained:
[1] = system: MGC-803; assay: Cell cycle arrest in human MGC803 cells assessed as accumulation of cells at S phase at 20 uM after 24 hrs by propidium iodide staining-based flow cytometric analysis (reference value: 37.1%); format: functional
[2] = system: MGC-803; assay: Inhibition of colony formation in human MGC803 cells assessed as reduction in viable cells at 40 uM incubated for 9 days where culture medium was changed every 3 days by crystal violet staining-based assay; format: functional
[3] = system: MGC-803; assay: Effect on HIF-1 expression levels in human MGC803 cells at 10 to 40 uM in presence of 100 uM CoCl2 after 24 hrs by Western blot analysis; format: functional, cell-based
[4] = system: MGC-803; assay: Induction of apoptosis in human MGC803 cells assessed as necrotic cells at 30 uM after 24 hrs by Annexin V-FITC/propidium iodide staining-based flow cytometric analysis (reference value: 0.556%); format: functional
[5] = system: MGC-803; assay: Induction of apoptosis in human MGC803 cells assessed as late apoptotic cells at 10 uM after 24 hrs by Annexin V-FITC/propidium iodide staining-based flow cytometric analysis (reference value: 4.17%); format: functional
[6] = system: MGC-803; assay: Effect on PFK expression levels in human MGC803 cells at 10 to 40 uM after 24 hrs by Western blot analysis; format: functional, cell-based
[7] = system: MGC-803; assay: Induction of apoptosis in human MGC803 cells assessed as early apoptotic cells at 10 uM after 24 hrs by Annexin V-FITC/propidium iodide staining-based flow cytometric analysis (reference value: 1.04%); format: functional
[8] = system: MGC-803; assay: Cell cycle arrest in human MGC803 cells assessed as accumulation of cells at G0/G1 phase at 40 uM after 24 hrs by propidium iodide staining-based flow cytometric analysis (reference value: 51.37%); format: functional
[9] = system: MGC-803; assay: Induction of apoptosis in human MGC803 cells assessed as viable cells at 10 uM after 24 hrs by Annexin V-FITC/propidium iodide staining-based flow cytometric analysis (reference value: 94.2%); format: functional; conditions: MGC-803, 24 h, read-out: Activity
[10] = system: MGC-803; assay: Induction of apoptosis in human MGC803 cells assessed as necrotic cells at 10 uM after 24 hrs by Annexin V-FITC/propidium iodide staining-based flow cytometric analysis (reference value: 0.556%); format: functional
[11] = system: MGC-803; assay: Induction of apoptosis in human MGC803 cells assessed as early apoptotic cells at 30 uM after 24 hrs by Annexin V-FITC/propidium iodide staining-based flow cytometric analysis (reference value: 1.04%); format: functional
[12] = system: A549; assay: Antiproliferative activity against human A549 cells after 48 hrs by MTT assay; format: functional, cell-based; conditions: A549, 48 h
[13] = system: MGC-803; assay: Induction of apoptosis in human MGC803 cells assessed as late apoptotic cells at 20 uM after 24 hrs by Annexin V-FITC/propidium iodide staining-based flow cytometric analysis (reference value: 4.17%); format: functional
[14] = system: MGC-803; assay: Inhibition of colony formation in human MGC803 cells assessed as reduction in viable cells incubated for 9 days where culture medium was changed every 3 days by crystal violet staining-based assay; format: functional, cell-based
[15] = system: MGC-803; assay: Cell cycle arrest in human MGC803 cells assessed as accumulation of cells at G2/M phase at 60 uM after 24 hrs by propidium iodide staining-based flow cytometric analysis (reference value: 9.86%); format: functional
[16] = system: MGC-803; assay: Cell cycle arrest in human MGC803 cells assessed as accumulation of cells at G2/M phase at 20 uM after 24 hrs by propidium iodide staining-based flow cytometric analysis (reference value: 9.86%); format: functional
[17] = system: MGC-803; assay: Down regulation of HK2 expression levels in human MGC803 cells at 10 to 40 uM after 24 hrs by Western blot analysis; format: functional, cell-based
[18] = system: MGC-803; assay: Cell cycle arrest in human MGC803 cells assessed as accumulation of cells at G0/G1 phase at 60 uM after 24 hrs by propidium iodide staining-based flow cytometric analysis (reference value: 51.37%); format: functional
[19] = system: HeLa; assay: Antiproliferative activity against human HeLa cells after 48 hrs by MTT assay; format: functional, cell-based
[20] = system: MGC-803; assay: Cell cycle arrest in human MGC803 cells assessed as accumulation of cells at G2/M phase after 24 hrs by propidium iodide staining-based flow cytometric analysis; format: functional
[21] = system: MGC-803; assay: Cell cycle arrest in human MGC803 cells assessed as accumulation of cells at G2/M phase at 40 uM after 24 hrs by propidium iodide staining-based flow cytometric analysis (reference value: 9.86%); format: functional
[22] = system: MGC-803; assay: Antiproliferative activity against human MGC803 cells after 48 hrs by MTT assay; format: functional, cell-based; conditions: MGC-803, 48 h
[23] = system: MGC-803; assay: Cell cycle arrest in human MGC803 cells assessed as accumulation of cells at S phase at 40 uM after 24 hrs by propidium iodide staining-based flow cytometric analysis (reference value: 37.1%); format: functional
[24] = system: MGC-803; assay: Induction of apoptosis in human MGC803 cells assessed as early apoptotic cells at 20 uM after 24 hrs by Annexin V-FITC/propidium iodide staining-based flow cytometric analysis (reference value: 1.04%); format: functional
[25] = system: MGC-803; assay: Induction of apoptosis in human MGC803 cells assessed as necrotic cells at 20 uM after 24 hrs by Annexin V-FITC/propidium iodide staining-based flow cytometric analysis (reference value: 0.556%); format: functional
[26] = system: MGC-803; assay: Cell cycle arrest in human MGC803 cells assessed as accumulation of cells at S phase at 60 uM after 24 hrs by propidium iodide staining-based flow cytometric analysis (reference value: 37.1%); format: functional
[27] = system: MGC-803; assay: Induction of apoptosis in human MGC803 cells assessed as late apoptotic cells at 30 uM after 24 hrs by Annexin V-FITC/propidium iodide staining-based flow cytometric analysis (reference value: 4.17%); format: functional
[28] = system: MGC-803; assay: Induction of apoptosis in human MGC803 cells assessed as viable cells at 30 uM after 24 hrs by Annexin V-FITC/propidium iodide staining-based flow cytometric analysis (reference value: 94.2%); format: functional; conditions: MGC-803, 24 h, read-out: Activity
[29] = system: MCF7; assay: Antiproliferative activity against human MCF7 cells after 48 hrs by MTT assay; format: functional, cell-based; conditions: MCF7, 48 h
[30] = system: HepG2; assay: Antiproliferative activity against human HepG2 cells after 48 hrs by MTT assay; format: functional, cell-based; conditions: HepG2, 48 h
[31] = system: MGC-803; assay: Induction of apoptosis in human MGC803 cells assessed as viable cells at 20 uM after 24 hrs by Annexin V-FITC/propidium iodide staining-based flow cytometric analysis (reference value: 94.2%); format: functional; conditions: MGC-803, 24 h, read-out: Activity
[32] = system: MGC-803; assay: Induction of apoptosis in human MGC803 cells after 24 hrs by Annexin V-FITC/propidium iodide staining-based flow cytometric analysis; format: functional, cell-based
[33] = system: MGC-803; assay: Antimigratory activity against human MGC803 cells after 48 hrs by scratch wound-healing assay; format: functional, cell-based
[34] = system: MGC-803; assay: Cell cycle arrest in human MGC803 cells assessed as accumulation of cells at G0/G1 phase at 20 uM after 24 hrs by propidium iodide staining-based flow cytometric analysis (reference value: 51.37%); format: functional

- IC50 [12]: 36 µM
- IC50 [19]: 52 µM
- IC50 [22]: 29 µM
- IC50 [29]: 63 µM
- IC50 [30]: 45 µM
Structure (SMILES): Cc1cccc(C(=O)NCCc2c[nH]c3ccc(Br)cc23)c1O
- Activity [1]: 21.11%
- inhibition at 40 µM [2]: 100%
- Activity [3]: inactive
- Activity [4]: 0.587%
- Activity [5]: 6.56%
- Activity [6]: inactive
- Activity [7]: 1.66%
- Activity [8]: 49.99%
- viability at 10 µM [9]: 91.5%
- Activity [10]: 0.25%
- Activity [11]: 42.7%
- Activity [13]: 9.67%
- inhibition [14]: Dose-dependent effect
- Activity [15]: 40.78%
- Activity [16]: 27.01%
- Activity [17]: Active
- Activity [18]: 52.98%
- Activity [20]: Dose-dependent effect
- Activity [21]: 34.65%
- Activity [23]: 15.58%
- Activity [24]: 5.97%
- Activity [25]: 1.37%
- Activity [26]: 7.56%
- Activity [27]: 15.4%
- viability at 30 µM [28]: 41.3%
- viability at 20 µM [31]: 83%
- Activity [32]: Dose-dependent effect
- Activity [33]: Dose-dependent effect
- Activity [34]: 43%
